Source: patent publication EP4799701A2, “PYRIMID-2-YL-PYRAZOLE COMPOUNDS AS IRAK INHIBITORS” (Rigel Pharmaceuticals, Inc., priority 2022, dated 2023)
Where “and” joins values, the source holds several entries; their conditions need not be identical. Equal entries are not always repeated.

Assays:
[1] = tested on: IL-1β-induced production of the cytokine IL-6; experiment: IL-1β-induced IL-6 in primary human endothelial cells; assay type: cell-based; conditions: result in words
TLR7-induced TNF-α [2] = experiment: TLR7-induced TNF-α in human PBMC (resiquimod); assay type: cell-based; conditions: human PBMCs; result in words
Protocol: Assay Protocol: TLR7-induced TNF-α in human Peripheral Blood Mononuclear Cells (PBMC).
• Corning™ Costar™ 96-Well, Cell Culture-Treated, U-Shaped-Bottom Microplate (Fisher, Cat# 07-200-95) • Human PBMC (ALL Cells, Cat# PB002) • Resiquimod (InvivoGen, Cat No. tlrl-r848) • Human TNF-α DuoSet ELISA Kit (R&D Systems, Cat# DY210) • Recombinant Human IFN-β (Peprotech, Cat# 300-02BC) • RPMI with 10% FBS • Axygen 96well, 1.1 mL, sterile (VWR International, Cat# 47734-788)
Human peripheral blood mononuclear cells (PBMC) were seeded at 100,000 cells per well in 100 µL of RPMI with 10% FCS and primed overnight with 8 ng/ml of IFN-β at 37 °C, 5% CO2. Compound was serially diluted in DMSO from 2 mM in 3-fold dilutions, and then diluted 1:100 in RPMI 1640 complete media with 10% FBS (2 x stock). The PBMCs were pre-incubated with test compound for 1 hour at 37 °C, 5% CO2 by adding 100 µL of RPMI media containing 2x concentrated test compound per well (0.5% final DMSO concentration).
The PBMCs were stimulated with resiquimod (10 µL per well of 21x concentrated resiquimod solution in RPMI media to give a final concentration of 0.1 µg/ml) at 37 °C, 5% CO2 for an additional 18 hours. 100 µL of supernatant per well was harvested to measure TNF-α. TNF-α was quantitated using DuoSet ELISA Kit per manufacturer's protocol.

TLR2- induced TNF-α = experiment: TLR2-induced TNF-α in human primary dendritic cells; assay type: cell-based; conditions: human primary dendritic cells (DC); result in words
TLR7-induced TNF-α [3] = experiment: TNF-α in human monocyte-derived dendritic cells (gardiquimod); assay type: cell-based; conditions: human primary dendritic cells (DC); result in words
Protocol: After 2 hours, the media including floating cells was carefully removed and 12 ml of fresh RPMI media (10% FBS) containing GM-CSF (100 ng/ml) and IL-4 (20 ng/ml) were added to the adherent monocytes.
The differentiated dendritic cells (DC) were harvested by centrifugation (1200 rpm/5 min).

[4] = Plasma protein binding, free drug comparison across species; assay type: in vitro ADME; conditions: free drug in rat, dog, monkey and human proteins
Protocol: (§1) Brain and plasma drug binding were performed by equilibrium dialysis using the Rapid Equilibrium Dialysis (RED) device. Briefly, 300 µL of plasma or brain homogenate (1 brain /3 buffer) containing drug (5 µM) was equilibrated (4-18 h) against 500 µL of buffered saline. After incubation, the concentration of drug in plasma/brain homogenate and buffer was determined by LC-MS/MS.
Higher free drug in plasma and brain allow for more drug to interact with the target. [drawing 34]
From a free drug perspective compound I-1 was approximately 6-times more free than Comparision-1 in rat, dog, monkey and human proteins.

[5] = Rat brain homogenate binding, equilibrium dialysis (RED); assay type: in vitro ADME
Protocol: as §1
Two runs of rat brain homogenate binding with I-1 compared to Comparison-1. I-1 is approximately 10-fold more free in rat brain than Comparison-1.

## CCO[C@H]1CC[C@H](n2cc(NC(=O)c3csc(-c4cn[nH]c4)n3)c(-c3ncccn3)n2)CC1 [Compound I-1, N-(1-((1r,4r)-4-ethoxycyclohexyl)-3-(pyrimidin-2-yl)-1H-pyrazol-4-yl)-2-(1H-pyrazol-4-yl)thiazole-4-carboxamide]
[1]
  IL-1β-induced production of the cytokine IL-6: potently inhibits
TLR7-induced TNF-α [2]
  TLR7-dependent cytokine production: potent inhibitor
TLR2- induced TNF-α
  TLR2- induced TNF-α production: blocks
TLR7-induced TNF-α [3]
  TLR7- induced TNF-α production: blocks
[4]
  more free than Comparision-1: approximately 6 times
[5]; rat brain homogenate
  more free in rat brain than Comparison-1: approximately 10 fold
[5]; two runs, brain homogenate 1 brain /3 buffer, drug 5 µM, 5 µM
  rat brain homogenate binding (free drug): 1.06% and 1.43%
